system: Influenza A virus (A/WSN/1933(H1N1)); experiment: microbe, parasite or virus in culture; assay type: cell-based; settings: MDCK, 24 h with compound, then 2 h drug-free medium

Structure (SMILES)	EC90
Cn1nc(C2CC2)cc1C(=O)NCc1cccc(C(F)(F)F)c1F [Compound 1, 3-cyclopropyl-N-(2-fluoro-3-(trifluoromethyl)benzyl)-1-methyl-1H-pyrazole-5-carboxamide]	400 nM
CC(C)c1cc(C(=O)NCc2cccc(C(F)(F)F)c2F)n(C)n1 [Compound 2, N-(2 fluoro-3-(trifluoromethyl)benzyl)-3-isopropyl-1-methyl-1H pyrazole-5-carboxamide]	100 nM
Cn1nc(C2CC2)cc1C(=O)NCc1cccc(C(F)(F)F)c1Cl [Compound 3, N-(2-chloro-3-(trifluoromethyl)benzyl)-3-cyclopropyl-1-methyl-1H-pyrazole-5-carboxamide]	1100 nM
CC(C)c1cc(C(=O)NCc2cccc(C(F)(F)F)c2Cl)n(C)n1 [Compound 4, N-(2-chloro-3-(trifluoromethyl)benzyl)-3-isopropyl-1-methyl-1H-pyrazole-5-carboxamide]	100 nM
COc1cc(CNC(=O)c2cc(C(C)(C)C)nn2C)ccc1Cl [Compound 5, 3-(tert-butyl)-N-(4-chloro-3-methoxybenzyl)-1-methyl-1H-pyrazole-5-carboxamide]	1500 nM
COc1cc(CNC(=O)c2cc(C3CC3)nn2C)ccc1Cl [Compound 6, N-(4-chloro-3-methoxybenzyl)-3-cyclopropyl-1-methyl-1H-pyrazole-5-carboxamide]	1500 nM
Cn1nc(C(C)(C)C)cc1C(=O)NCc1cccc(OC(F)(F)F)c1F [Compound 7, 3-(tert-butyl)-N-(2-fluoro-3-(trifluoromethoxy)benzyl)-1-methyl-1H-pyrazole-5-carboxamide]	1800 nM
Cn1nc(C2CC2)cc1C(=O)NCc1cccc(OC(F)(F)F)c1F [Compound 8, 3-cyclopropyl-N-(2-fluoro-3-(trifluoromethoxy)benzyl)-1-methyl-1H-pyrazole-5-carboxamide]	1500 nM
CC(C)c1cc(C(=O)NCc2cccc(OC(F)(F)F)c2F)n(C)n1 [Compound 9, N-(2-fluoro-3-(trifluoromethoxy)benzyl)-3-isopropyl-1-methyl-1H-pyrazole-5-carboxamide]	400 nM
Cn1nc(C2CC2)cc1C(=O)NCc1cccc(OCC2CC2)c1F [Compound 10, 3-cyclopropyl-N-(3-(cyclopropylmethoxy)-2-fluorobenzyl)-1-methyl-1H-pyrazole-5-carboxamide]	100 nM
Cc1ccc(CNC(=O)c2cc(C(C)(C)C)nn2C)cc1Cl [Compound 11, 3-(tert-butyl)-N-(3-chloro-4-methylbenzyl)-1-methyl-1H-pyrazole-5-carboxamide]	1500 nM
COc1ccc(CNC(=O)c2cc(C(C)(C)C)nn2C)cc1Cl [Compound 12, 3-(tert-butyl)-N-(3-chloro-4-methoxybenzyl)-1-methyl-1H-pyrazole-5-carboxamide]	1800 nM
CCCOc1ccc(CNC(=O)c2cc(C(C)C)nn2C)cc1Cl [Compound 13, N-(3-chloro-4-propoxybenzyl)-3-isopropyl-1-methyl-1H-pyrazole-5-carboxamide]	400 nM
Cn1nc(C2CC2)cc1C(=O)NCc1ccc(OCC2CC2)c(Cl)c1 [Compound 14, N-(3-chloro-4-(cyclopropylmethoxy)benzyl)-3-cyclopropyl-1-methyl-1H-pyrazole-5-carboxamide]	400 nM
CC(C)c1cc(C(=O)NCc2ccc(OCC3CC3)c(Cl)c2)n(C)n1 [Compound 15, N-(3-chloro-4-(cyclopropylmethoxy)benzyl)-3-isopropyl-1-methyl-1H-pyrazole-5-carboxamide]	400 nM
CCOc1ccc(CNC(=O)c2cc(C(C)(C)C)nn2C)cc1Br [Compound 16, N-(3-bromo-4-ethoxybenzyl)-3-(tert-butyl)-1-methyl-1H-pyrazole-5-carboxamide]	1000 nM
CCOc1ccc(CNC(=O)c2cc(C(C)C)nn2C)cc1Br [Compound 17, N-(3-bromo-4-ethoxybenzyl)-3-isopropyl-1-methyl-1H-pyrazole-5-carboxamide]	400 nM
COc1c(Br)cccc1CNC(=O)c1cc(C2CC2)nn1C [Compound 18, N-(3-bromo-2-methoxybenzyl)-3-cyclopropyl-1-methyl-1H-pyrazole-5-carboxamide]	1500 nM
Cc1c(F)cccc1CNC(=O)c1cc(C2CC2)nn1C [Compound 19, 3-cyclopropyl-N-(3-fluoro-2-methylbenzyl)-1-methyl-1H-pyrazole-5-carboxamide]	1500 nM
Cc1cccc(CNC(=O)c2cc(C3CC3)nn2C)c1C [Compound 20, 3-cyclopropyl-N-(2,3-dimethylbenzyl)-1-methyl-1H-pyrazole-5-carboxamide]	1500 nM
Cc1cccc(CNC(=O)c2cc(C3CC3)nn2C)c1OC(F)F [Compound 21, 3-cyclopropyl-N-(2-(difluoromethoxy)-3-methylbenzyl)-1-methyl-1H-pyrazole-5-carboxamide]	2000 nM
Cc1c(CNC(=O)c2cc(C3CC3)nn2C)cccc1C(F)(F)F [Compound 22, 3-cyclopropyl-1-methyl-N-(2-methyl-3-(trifluoromethyl)benzyl)-1H-pyrazole-5-carboxamide]	300 nM

Structure (SMILES)	EC90
COc1c(CNC(=O)c2cc(C3CC3)nn2C)cccc1C(F)(F)F [Compound 24, 3-cyclopropyl-N-(2-methoxy-3-(trifluoromethyl)benzyl)-1-methyl-1H-pyrazole-5-carboxamide]	200 nM
COc1c(CNC(=O)c2cc(C(C)C)nn2C)cccc1C(F)(F)F [Compound 25, 3-isopropyl-N-(2-methoxy-3-(trifluoromethyl)benzyl)-1-methyl-1H-pyrazole-5-carboxamide]	400 nM
COc1ccc(CNC(=O)c2cc(C3CC3)nn2C)cc1C(F)(F)F [Compound 26, 3-cyclopropyl-N-(4-methoxy-3-(trifluoromethyl)benzyl)-1-methyl-1H-pyrazole-5-carboxamide]	800 nM
COc1cc(CNC(=O)c2cc(C(C)(C)C)nn2C)ccc1C [Compound 27, 3-(tert-butyl)-N-(3-methoxy-4-methylbenzyl)-1-methyl-1H-pyrazole-5-carboxamide]	1500 nM
COc1cccc(CNC(=O)c2cc(C3CC3)nn2C)c1C [Compound 28, 3-cyclopropyl-N-(3-methoxy-2-methylbenzyl)-1-methyl-1H-pyrazole-5-carboxamide]	1500 nM
COc1cccc(CNC(=O)c2cc(C(C)C)nn2C)c1C [Compound 29, 3-isopropyl-N-(3-methoxy-2-methylbenzyl)-1-methyl-1H-pyrazole-5-carboxamide]	1500 nM
COc1cccc(CNC(=O)c2cc(C3CC3)nn2C)c1C(F)(F)F [Compound 30, 3-cyclopropyl-N-(3-methoxy-2-(trifluoromethyl)benzyl)-1-methyl-1H-pyrazole-5-carboxamide]	300 nM
COc1cccc(CNC(=O)c2cc(C(C)(C)C)nn2C)c1O [Compound 31, 3-(tert-butyl)-N-(2-hydroxy-3-methoxybenzyl)-1-methyl-1H-pyrazole-5-carboxamide]	1000 nM
COc1cccc(CNC(=O)c2cc(C(C)C)nn2C)c1OC [Compound 32, N-(2,3-dimethoxybenzyl)-3-isopropyl-1-methyl-1H-pyrazole-5-carboxamide]	1000 nM
CCCOc1c(CNC(=O)c2cc(C3CC3)nn2C)cccc1OC [Compound 33, 3-cyclopropyl-N-(3-methoxy-2-propoxybenzyl)-1-methyl-1H-pyrazole-5-carboxamide]	1500 nM
Cn1nc(C(C)(C)C)cc1C(=O)NCc1cccc(OC(F)(F)F)c1O [Compound 34, 3-(tert-butyl)-N-(2-hydroxy-3-(trifluoromethoxy)benzyl)-1-methyl-1H-pyrazole-5-carboxamide]	1200 nM
COc1c(CNC(=O)c2cc(C(C)(C)C)nn2C)cccc1OC(F)(F)F [Compound 35, 3-(tert-butyl)-N-(2-methoxy-3-(trifluoromethoxy)benzyl)-1-methyl-1H-pyrazole-5-carboxamide]	200 nM
COc1c(CNC(=O)c2cc(C3CC3)nn2C)cccc1OC(F)(F)F [Compound 36, 3-cyclopropyl-N-(2-methoxy-3-(trifluoromethoxy)benzyl)-1-methyl-1H-pyrazole-5-carboxamide]	100 nM
CCOc1cccc(CNC(=O)c2cc(C(C)(C)C)nn2C)c1OC(F)F [Compound 37, 3-(tert-butyl)-N-(2-(difluoromethoxy)-3-ethoxybenzyl)-1-methyl-1H-pyrazole-5-carboxamide]	100 nM
CCOc1cccc(CNC(=O)c2cc(C3CC3)nn2C)c1OC(F)F [Compound 38, 3-cyclopropyl-N-(2-(difluoromethoxy)-3-ethoxybenzyl)-1-methyl-1H-pyrazole-5-carboxamide]	100 nM
COc1c(CNC(=O)c2cc(C3CC3)nn2C)cccc1OCC1CCCC1 [Compound 39, N-(3-(cyclopentylmethoxy)-2-methoxybenzyl)-3-cyclopropyl-1-methyl-1H-pyrazole-5-carboxamide]	100 nM
Cc1cc(CNC(=O)c2cc(C(C)C)nn2C)cc(C)c1OC(F)F [Compound 40, N-(4-(difluoromethoxy)-3,5-dimethylbenzyl)-3-isopropyl-1-methyl-1H-pyrazole-5-carboxamide]	400 nM
CCOc1c(Br)cc(CNC(=O)c2cc(C3CC3)nn2C)cc1OC [Compound 41, N-(3-bromo-4-ethoxy-5-methoxybenzyl)-3-cyclopropyl-1-methyl-1H-pyrazole-5-carboxamide]	400 nM
CCCOc1c(Cl)cc(CNC(=O)c2cc(C(C)C)nn2C)cc1OC [Compound 42, N-(3-chloro-4-propoxy-5-methoxybenzyl)-3-isopropyl-1-methyl-1H-pyrazole-5-carboxamide]	200 nM
CCOc1c(F)cc(CNC(=O)c2cc(C3CC3)nn2C)cc1Cl [Compound 43, N-(3-chloro-4-ethoxy-5-fluorobenzyl)-3-cyclopropyl-1-methyl-1H-pyrazole-5-carboxamide]	400 nM
CCOc1cc(F)c(CNC(=O)c2cc(C3CC3)nn2C)cc1Cl [Compound 44, N-(5-chloro-4-ethoxy-2-fluorobenzyl)-3-cyclopropyl-1-methyl-1H-pyrazole-5-carboxamide]	400 nM

Source: patent publication US10532980B2, “N-methyl pyrazoles” (Prosetta Antiviral, Inc., priority 2015, dated 2020)
